According to patent publication US9579317B2, “Peptide-drug conjugates” (JiaRui Biopharmaceuticals, Ltd., priority 2014, dated 2017):

How the values were obtained:
Balb/c mice = assay: In vivo maximum tolerated dose (MTD) in Balb/c mice; design: mortality: dose or concentration left out as unconfirmed
[1] = test system: CT-26 syngenic colon cancer model; assay: In vivo antitumor activity, subcutaneous CT-26 syngenic colon cancer model; design: species or system Balb/c mice; conditions: QW, intravenous, three injections
Method: The tumoricidal effect of peptide-drug conjugate N^α-succinamic acid-Ala-Ala-Asn-PABC-mitomycin [8] was evaluated on subcutaneous CT-26 syngenic colon cancer model in Balb/c mice. Each mouse was inoculated subcutaneously at the right flank region with CT-26 tumor cells (5×10^5) in 0.1 mL of PBS.

HCT116 = assay: cells; format: cell-based, human; conditions: 72 hours, n = 3, mean
Method: (§1) Monolayer cultures of human carcinoma cells were harvested using trypsin-EDTA, and the cells counted and resuspended to 1×10^5/mL in RPMI-1640 or DMEM containing 10% FBS. Cells (0.1 mL/well) were added to each well of 96 well microtiter plates and incubated overnight at 37° C. in a humidified atmosphere of 5% CO2. […] All dilutions were performed in triplicate. The drug treated cells were incubated for another 72 hours at 37° C. in a humidified atmosphere of 5% CO2. 50 μL of cold TCA (50%, wt/vol) was added to each well and incubated the plates at 4° C. for 1 hour. The plates were washed with slow-running tap water for three times and the dried at room temperature. 50 μL of Sulforhodamine B solution (0.4%, wt/vol) was added to each well and the plates were left at room temperature for 1 hour. The plates were rinsed with acetic acid solution (1%, vol/vol) to remove the unbound dye and dried at room temperature. 200 μL of 10 mM Tris base solution was added to each well and the plates were shaken on a gyratory shaker for 15 minutes to solubilize the protein-bound dye. Well optical density at 510 nm was measured in a microplate reader, and the IC50 was calculated by GraphPad from three separated experiments with triplicate in each experiment and expressed as mean (Table 1).

HepG2 = assay: cells; format: cell-based, human; conditions: 72 hours, n = 3, mean
Method: as §1

Human plasma stability = assay: Human plasma stability
Method: 100 μL aliquots were removed at the time points of 0, 0.25, 0.5, 1, 2, 4, 6 hours and diluted with 400 μL cold acetonitrile containing tolbutamide (200 ng/mL) as internal standard. The samples were centrifuged at 14,000 rpm for 4 minutes. 100 μL of above supernatants were diluted with 300 μL of 0.1% formic acid HPLC water and 10 μL was taken for LC/MS/MS analysis (column: C-18; mobile phase: 0.1% formic acid in water/0.1% formic acid in acetonitrile; ion transition: Q1 ion (m/z)=840.5, Q2 ion (m/z)=462.2).

[2] = 25, 50 and 100 mg/kg, once per week, three injections total for 24 days

CO[C@@]12[C@H](COC(N)=O)C3=C(C(=O)C(C)=C(N)C3=O)N1C[C@H]1[C@@H]2N1C(=O)OCc1ccc(NC(=O)[C@H](CC(N)=O)NC(=O)[C@H](C)NC(=O)[C@H](C)NC(=O)CCC(=O)O)cc1 [compound 8, N^α-succinamic acid-Ala-Ala-Asn-PABC-mitomycin]
appearance (Balb/c mice; [2]): no abnormal appearance | body weight (loss) (Balb/c mice; [2]): < 10% | increase of mice maximum tolerated dose (MTD) as compared with parent drug mitomycin (Balb/c mice; Balb/c mice): at least 20 fold | tumor growth T/C versus untreated control ([1]; 50 mg/kg, p<0.01): 36.4% | IC50 (HCT116): 6650 nM | IC50 (HepG2): 2480 nM | free drug mitomycin detected (Human plasma stability; human plasma incubation, 10 μM, 37° C.): Less than 2% | half-life at 10 μM (Human plasma stability; human, plasma): > 15 h

CO[C@@]12[C@H](COC(N)=O)C3=C(C(=O)C(C)=C(N)C3=O)N1C[C@@H]1N[C@@H]12 [mitomycin, reference compound]
mortality (Balb/c mice): animal death was observed | tumor growth T/C ([1]; 5 mg/kg (MTD dose)): 50.4% | IC50 (HCT116; Homo sapiens, HCT-116): 116 nM | IC50 (HepG2; Homo sapiens, HepG2): 143 nM
